Consider one compound from paper PMC12089418, “Quantifying VMAT2 target occupancy at effective valbenazine doses and comparing to a novel VMAT2 inhibitor: a translational PET study” (Neuropsychopharmacology, 2025).

The target in data set [1] is T1, VMAT2 (Homo sapiens, UniProt Q05940). As to the kind of experiment: In vitro Ki for affinity to VMAT2, human. The data set is classed as binding. The text has this:
Ki values for compound affinity to VMAT2 were generated from human platelet homogenates as described in [18].

The target in data set [2] is T1, VMAT2. Put plainly: Estimated human VMAT2 %TO from human PK and NHP PET free EC50. Also on record: from tissue; host or cells: brain of healthy male volunteers (caudate, putamen). Type of data set: in vivo. Here is the method:
(§1) Valbenazine human plasma exposure metrics in patients were estimated with a population pharmacokinetic (PK) analysis and plasma protein binding (PPB) data. […] These steady-state concentrations, in conjunction with free EC50 from NHP PET for blocking compounds was used to estimate %TO in humans. Plasma concentrations of NBI-750142 following 60 mg BID dose were estimated using plasma concentrations following a single oral dose of 60 mg NBI-750142 using the principle of superposition.

Data set [3] addresses T2, VMAT2 (Macaca fascicularis, UniProt A0A2K5UVB8). Put plainly: In vitro Ki for affinity to VMAT2, NHP. The data set is classed as binding.
Target sequence in this assay (A0A2K5UVB8 1-517): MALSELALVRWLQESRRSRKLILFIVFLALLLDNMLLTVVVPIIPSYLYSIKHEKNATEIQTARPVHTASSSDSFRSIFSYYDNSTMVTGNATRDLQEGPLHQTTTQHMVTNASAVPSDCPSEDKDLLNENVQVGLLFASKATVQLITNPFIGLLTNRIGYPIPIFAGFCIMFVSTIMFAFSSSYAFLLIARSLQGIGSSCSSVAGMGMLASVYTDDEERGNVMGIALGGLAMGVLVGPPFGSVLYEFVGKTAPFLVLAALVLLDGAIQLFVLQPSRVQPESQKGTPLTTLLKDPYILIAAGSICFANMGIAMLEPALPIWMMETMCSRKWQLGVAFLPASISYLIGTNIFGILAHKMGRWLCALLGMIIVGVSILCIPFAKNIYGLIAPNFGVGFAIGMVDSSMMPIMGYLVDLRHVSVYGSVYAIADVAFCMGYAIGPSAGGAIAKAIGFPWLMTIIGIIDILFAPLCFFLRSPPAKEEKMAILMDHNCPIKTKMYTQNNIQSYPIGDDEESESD
In data set [4] the target is T2, VMAT2. As to the kind of experiment: NHP [18F]AV-133 PET target occupancy. Type of data set: in vivo, cynomolgus macaques. The following applies: for EC50: Emax model. Here is the method: Each NHP PET study enrolled two to three cynomolgus macaques, (3.8–9 year age range).
NHPs fasted overnight before individual PET scans. For the NBI-750142 study, 60 min prior to NBI-750142 or vehicle administration, animals were sedated with an intramuscular injection of 2 mg/kg Aflaxan, 0.02 mg/kg dexmedetomidine, and 0.3 mg/kg midazolam. The animals were intubated with an endotracheal tube for continued delivery of oxygen (1.5–2.5 L) and 1.0–2.5% isoflurane for anesthesia maintenance.
The animals were intubated with an endotracheal tube for continued delivery of isoflurane for anesthesia maintenance.
For all NHP PET scans, blocking compound was administered with a bolus loading dose, followed by constant intravenous infusion over 3 h, with the goal of achieving steady-state plasma exposure. One hour after blocking compound or vehicle administration, [^18F]AV-133 was administered as an intravenous bolus. Dynamic PET data were acquired with a MicroPET Focus-220 camera (Siemens Microsystems, Knoxville, TN) for 120 min post injection and reconstructed into a series of 33 frames and all standard corrections were applied for normalization, randoms, scatter, and attenuation. Brain PET images were analyzed using PMOD software package v3.802 (PMOD Technologies, Zurich, Switzerland). […]
During each scan, 1 mL whole blood PK samples were collected (in K2 EDTA tubes) at multiple time points. Blocking compound concentration in plasma samples were analyzed using validated LC-MS/MS bioanalytical methods. […] The average plasma concentration, Cave, was calculated as the mean compound concentration of samples collected during the PET scan and used for PK-TO analysis.
Time-activity curves were generated for the caudate, putamen, and cerebellum. Non-displaceable binding potential (BPND) was estimated using non-invasive Logan graphical analysis with cerebellum as reference region. %TO of the blocking compound was calculated in the caudate and putamen using baseline and post-dose BPND as follows:1 %TO=1−BPNDpost−block/BPNDbaselinex100 […]
Target sequence in this assay (A0A2K5UVB8 entry or part of it): as the sequence (A0A2K5UVB8 1-517) above

Data set [5] can be described thus: Human steady-state plasma exposure (population PK / superposition). Type of data set: in vivo. The following applies: 60 mg NBI-750142 BID. Here is the method: as §1
A short description of data set [6]: Plasma protein binding by equilibrium dialysis, human plasma. The data set is classed as in vitro ADME, humans. Particulars: both sexes, pooled plasma, read-out: fraction unbound in plasma (fu_p).
A short description of data set [7]: Plasma protein binding by equilibrium dialysis, cynomolgus monkey plasma. The data set is classed as in vitro ADME, cynomolgus monkeys. The following applies: both sexes, pooled plasma, read-out: fraction unbound in plasma (fu_p).
The mark [8] stands for this setting: 60 mg NBI-750142 BID, NHP PET free EC50 6.7 ng/mL.
Setting [9] is: estimated from single 60 mg oral dose by superposition.

The structures appear in SMILES notation. pKi: −log10 of the molar value. Where two headings read alike, the source gives them in different places.

T1 sequence (Q05940 whole entry): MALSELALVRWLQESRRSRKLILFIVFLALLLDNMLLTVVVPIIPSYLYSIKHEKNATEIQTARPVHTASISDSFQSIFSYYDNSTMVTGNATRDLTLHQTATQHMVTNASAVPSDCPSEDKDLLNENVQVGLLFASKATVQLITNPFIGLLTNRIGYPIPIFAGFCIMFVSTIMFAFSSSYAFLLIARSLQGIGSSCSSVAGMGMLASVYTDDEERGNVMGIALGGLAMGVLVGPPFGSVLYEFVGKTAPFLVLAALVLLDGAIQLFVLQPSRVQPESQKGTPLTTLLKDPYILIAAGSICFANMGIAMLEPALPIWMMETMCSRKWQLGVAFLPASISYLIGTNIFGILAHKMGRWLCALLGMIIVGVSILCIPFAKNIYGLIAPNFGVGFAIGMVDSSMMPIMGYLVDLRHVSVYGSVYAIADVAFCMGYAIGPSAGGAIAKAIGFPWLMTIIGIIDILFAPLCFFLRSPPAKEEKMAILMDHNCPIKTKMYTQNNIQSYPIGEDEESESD

Consider `COc1cc2c(cc1OC)[C@H]1CN(C)[C@H](CC(C)(C)C)CN1CC2` [NBI-750142], for which the pKi (usually the negative decadic logarithm of the Ki, by convention in mol/L) on VMAT2 [1] was 7.56. Moreover, at VMAT2 [2] (60 mg NBI-750142 BID (acceptable doses), Ctrough to Cmax), the “VMAT2 %TO estimations” value was 36–78%. Moreover, on VMAT2 [2] (setting [8]), the “VMAT2 %TO at Cavg” value was 67%, the “VMAT2 %TO at Cmax” value was 78% and the “VMAT2 %TO at Ctrough” value is 36%. For the same compound, the negative-log Ki (pKi) on VMAT2 [3] is 7.74. At VMAT2 [4] (NHP, free PET EC50 over in vitro Ki), the “EC50:Ki Ratio” value is 1.1. At VMAT2 [4] (total compound Cave during 120-min scan, read-out: EC50 (average total plasma concentration vs %TO) (converted)), the EC50 is 33.1 nM. Moreover, the EC50 on VMAT2 [4] (total concentration multiplied by fu_p, read-out: free EC50 (free plasma concentration vs %TO) (converted)) was 20.2 nM. Further, in data set [5] (setting [9]), the “Cavg, total” value is 27.7 ng/mL; the “Cmax, total” value is reported as 48.1 ng/mL; the “Ctrough, total” value is on record as 7.6 ng/mL. In data set [5] (total x fu_p), the “Cavg, free” value came out at 13.9 ng/mL; the “Cmax, free” value is given as 24.1 ng/mL; the “Ctrough, free” value turned out to be 3.8 ng/mL. Also, in data set [6], the free fraction (fraction unbound) – broadly, the share of the substance not bound to proteins or other matrix – came to 0.5. Further, the unbound share (fraction unbound) in data set [7] was 0.59.
